{"source": "paper PMC9887116", "about": "“SDI-118, a novel procognitive SV2A modulator: First-in-human randomized controlled trial including PET/fMRI assessment of target engagement” (Frontiers in Pharmacology, 2023)", "key": {"hERG": {"biological_target": "hERG (Homo sapiens, UniProt Q12809)", "sequence (Q12809 whole entry)": "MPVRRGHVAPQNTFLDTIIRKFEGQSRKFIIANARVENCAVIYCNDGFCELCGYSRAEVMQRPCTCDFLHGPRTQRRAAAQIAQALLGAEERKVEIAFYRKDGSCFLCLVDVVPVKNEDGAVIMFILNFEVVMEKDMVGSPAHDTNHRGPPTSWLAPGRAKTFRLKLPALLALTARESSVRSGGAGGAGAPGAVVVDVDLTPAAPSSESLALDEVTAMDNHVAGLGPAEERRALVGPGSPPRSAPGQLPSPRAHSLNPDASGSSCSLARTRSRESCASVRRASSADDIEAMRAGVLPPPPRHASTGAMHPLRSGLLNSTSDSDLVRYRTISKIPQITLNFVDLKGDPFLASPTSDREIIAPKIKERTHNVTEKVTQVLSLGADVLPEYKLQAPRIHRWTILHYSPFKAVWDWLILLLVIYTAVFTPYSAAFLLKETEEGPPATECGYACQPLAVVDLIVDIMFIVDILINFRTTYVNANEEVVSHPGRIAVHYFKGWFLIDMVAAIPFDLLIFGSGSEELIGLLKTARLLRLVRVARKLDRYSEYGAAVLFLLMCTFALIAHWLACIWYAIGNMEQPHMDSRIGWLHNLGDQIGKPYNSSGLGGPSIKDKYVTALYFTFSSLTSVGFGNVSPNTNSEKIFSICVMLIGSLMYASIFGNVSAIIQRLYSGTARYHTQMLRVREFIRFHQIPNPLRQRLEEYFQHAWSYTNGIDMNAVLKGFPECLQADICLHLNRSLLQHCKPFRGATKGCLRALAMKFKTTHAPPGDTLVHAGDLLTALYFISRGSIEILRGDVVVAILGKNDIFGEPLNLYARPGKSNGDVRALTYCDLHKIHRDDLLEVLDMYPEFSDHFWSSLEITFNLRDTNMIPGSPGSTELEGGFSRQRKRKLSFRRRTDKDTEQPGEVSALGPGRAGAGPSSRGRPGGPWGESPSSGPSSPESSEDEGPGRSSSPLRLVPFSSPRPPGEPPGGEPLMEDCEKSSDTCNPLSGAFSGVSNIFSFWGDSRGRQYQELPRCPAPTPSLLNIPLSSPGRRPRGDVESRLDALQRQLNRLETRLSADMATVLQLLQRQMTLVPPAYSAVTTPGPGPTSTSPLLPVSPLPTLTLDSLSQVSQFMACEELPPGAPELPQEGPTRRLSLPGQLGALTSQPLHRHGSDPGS", "assay": "preclinical in vitro hERG inhibition", "assay_type": "biochemical", "conditions": "preclinical in vitro studies"}, "SV2A": {"biological_target": "T1, SV2A (Homo sapiens, UniProt Q7L0J3)", "T1 construct": "from tissue; host or cells: brain of healthy male subjects, in vivo", "T1 sequence (Q7L0J3 whole entry)": "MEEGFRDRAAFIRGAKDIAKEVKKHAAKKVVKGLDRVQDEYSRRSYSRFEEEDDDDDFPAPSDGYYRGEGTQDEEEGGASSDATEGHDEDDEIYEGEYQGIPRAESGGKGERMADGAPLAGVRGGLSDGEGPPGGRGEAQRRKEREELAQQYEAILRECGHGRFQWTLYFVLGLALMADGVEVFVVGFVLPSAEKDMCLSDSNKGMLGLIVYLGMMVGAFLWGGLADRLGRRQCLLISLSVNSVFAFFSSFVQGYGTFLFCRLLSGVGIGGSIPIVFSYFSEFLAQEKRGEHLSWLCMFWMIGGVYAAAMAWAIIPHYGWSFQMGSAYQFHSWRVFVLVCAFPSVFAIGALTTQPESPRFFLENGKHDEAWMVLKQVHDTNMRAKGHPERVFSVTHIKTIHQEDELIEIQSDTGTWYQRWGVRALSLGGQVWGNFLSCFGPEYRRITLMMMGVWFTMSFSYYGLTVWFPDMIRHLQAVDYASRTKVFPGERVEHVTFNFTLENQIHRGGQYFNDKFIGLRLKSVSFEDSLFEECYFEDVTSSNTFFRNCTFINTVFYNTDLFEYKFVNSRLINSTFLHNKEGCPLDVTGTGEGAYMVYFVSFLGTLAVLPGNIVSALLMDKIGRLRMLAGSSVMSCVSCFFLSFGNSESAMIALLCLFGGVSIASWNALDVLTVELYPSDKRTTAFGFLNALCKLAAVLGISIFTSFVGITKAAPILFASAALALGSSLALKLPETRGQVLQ", "assay": "brain SV2A occupancy by [11C]-UCB-J PET and PK/PD Emax model, Part B", "assay_type": "in vivo, human (healthy male subjects)", "protocol": "In Part B target occupancy in the brain was measured by PET-scans (GE Signa) with the PET-ligand [^11C]-UCB-J ([Nabulsi et al., 2016]; [Koole et al., 2019]) at three different time points: pre-dose, around Tmax (estimated on data collected in Part A), and approximately 24 h post-dose. [^11C]-UCB-J was administered as an intravenous bolus into the antecubital vein over at least 15 s, followed by saline flush. An arterial line in the radial artery was placed in each subject to collect arterial blood samples to reconstruct a metabolite-corrected arterial plasma input function.\nDynamic PET scans were acquired in 3D list-mode for 90 min. List-mode data were rebinned into […] with a gradually increasing frame duration (6 × 15 s—3 × 30 s—3 × 60 s—2 × 90 s—2 × 3 min—9 × 5 min—3 × 10 min) and corrected for deadtime, randoms, and scatter. To correct for attenuation, a Zero-Echo Time (ZTE) scan was acquired simultaneously with the PET data to generate a subject-specific, MR-based attenuation map. Each frame was reconstructed with an iterative algorithm (OSEM—Ordered Subsets Expectation Maximization, four iterations, 28 subsets), modeling detector response, and using time of flight information (TOF). Each reconstructed frame consisted of 89 slices with a matrix size of 192 × 192, corresponding to an in-plane pixel size of 1.56 mm and a slice separation of 2.78 mm. Finally, smoothing was performed by applying a Gaussian filter (4.5 mm Full Width Half Maximum–FWHM) to each time frame.\nSDI-118 SV2A occupancy was estimated globally using a full kinetic one-tissue compartmental modeling approach with an arterial input function (1TCM), and target occupancy was assessed with a Lassen plot using 13 main regions of interest: the overall cortex, the frontal, temporal, parietal and occipital cortex, the insula, the anterior and posterior cingulate cortex, the cerebellum, the striatum, the thalamus, the hippocampus, and the brainstem.\nThe PK/PD analysis set included all subjects from Part B with at least one available valid combined measurement of PK and PD, who received treatment and experienced no protocol deviations with relevant impact on PK or PD data. The global target occupancy based on the 1TCM method was analyzed as a function of the first PK concentration during the Tmax and 24-h post-dose scans. To estimate the relationship between the observed concentration at the beginning of the PET measurement and the receptor occupancy, a mixed-effect maximal effective concentration (Emax) model with two parameters Emax and half maximal effective concentration (EC50), with a random intercept was used. Parameter estimates, standard errors, and 95% confidence intervals were reported. Predictions from the model were reported with 95% confidence and prediction intervals to inform the required doses to produce these target occupancy values at Tmax and 24-h post-dose."}, "[1]": {"assay": "anti-convulsant effects (preclinical)", "assay_type": "in vivo", "conditions": "despite good brain penetration and target occupancy", "from_the_text": "(§1) ([Löscher et al., 2016]). […] ([Lynch et al., 2004]; [Matagne et al., 2008])."}, "[2]": {"test_system": "screening panel of receptors and enzymes", "assay": "screening panel of receptors and enzymes", "conditions": "up to a concentration of 10 µM", "protocol": "There were no SAEs or adverse events leading to subject discontinuation from the study. […] The most frequently reported drug related TEAEs were dizziness, hypersomnia, and somnolence, the latter reported only at the highest dose tested (i.e. 80 mg). The onset time of these events was generally short after dose administration, and their duration was usually short with resolution on the same day of dosing or the day after at the most. These mild and transient side effects started at the 10 mg dose and were also observed at higher doses. […] Occupancy at the higher doses would then progressively increase to a maximum of 96% of the predicted maximum at the 80 mg dose. Thus, the observed mild and transient side effects could be consistent with a target related effect seen, in some individuals, at occupancy levels greater than ∼60%. […] Further studies will elucidate this. None of the observed clinically significant changes in vital signs, laboratory parameters, and ECG intervals during the study were considered related to the administration of SDI-118."}, "[3]": {"test_system": "animal models of cognitive deficit", "assay": "animal models of cognitive deficit", "assay_type": "in vivo", "conditions": "rodents", "from_the_text": "as §1"}, "[4]": {"conditions": "Emax model excluding 22-h post-dose data of the 1 mg group"}}, "note": "Several values for one entry are separate records, joined by “and”; a condition that tells them apart may be missing. Equal entries are not always repeated.", "data": [{"smiles": "O=C1C[C@H](c2cc(F)c(F)c(F)c2)CN1Cn1ncnc1Cl", "note": "[SDI-118]", "values": [{"measurement": "potential to inhibit hERG", "setting": "hERG", "result": "low potential to inhibit hERG"}, {"measurement": "mean SV2A occupancy", "setting": "SV2A; 1 mg oral, approximately 24 h after administration", "result": "~0", "unit": "%"}, {"measurement": "mean SV2A occupancy", "setting": "SV2A; 1 mg oral, around Tmax (2 h post-dose), 1TC global method", "result": 23, "unit": "%"}, {"measurement": "mean SV2A occupancy", "setting": "SV2A; 2 mg oral, approximately 24 h after administration", "result": 20, "unit": "%"}, {"measurement": "mean SV2A occupancy", "setting": "SV2A; 2 mg oral, around Tmax, 1TC global method", "result": 41, "unit": "%"}, {"measurement": "predicted mean SV2A occupancy at trough level at steady state", "setting": "SV2A; 10 mg once a day, model prediction", "result": 76, "unit": "%"}, {"measurement": "mean SV2A occupancy", "setting": "SV2A; 10 mg oral, approximately 24 h after administration", "result": 48, "unit": "%"}, {"measurement": "mean SV2A occupancy", "setting": "SV2A; 10 mg oral, around Tmax, 1TC global method", "result": "69% and ~70%"}, {"measurement": "mean SV2A occupancy", "setting": "SV2A; 20 mg oral, approximately 24 h after administration", "result": 61, "unit": "%"}, {"measurement": "mean SV2A occupancy", "setting": "SV2A; 20 mg oral, around Tmax, 1TC global method (peak occupancy)", "result": 76, "unit": "%"}, {"measurement": "mean plasma concentration", "setting": "SV2A; 20 mg oral, around Tmax, Part B", "result": "159 ± 20.5", "unit": "ng/mL"}, {"measurement": "occupancy as share of predicted maximum", "setting": "SV2A; 80 mg dose, predicted", "result": 96, "unit": "%"}, {"measurement": "EC50 of SV2A occupancy (plasma concentration)", "setting": "SV2A; [4]", "result": 28.2, "unit": "ng/mL"}, {"measurement": "Emax of SV2A occupancy", "setting": "SV2A; [4]", "result": 90.3, "unit": "%"}, {"measurement": "plasma level predicted to render ~90% of maximal occupancy", "setting": "SV2A; Figure 3", "result": "~200", "unit": "ng/mL"}, {"measurement": "EC50 of plasma concentration-occupancy relationship (Figure 3)", "setting": "SV2A; Tmax and 24 h post-dose, excluding 24 h data of 1 mg", "result": "around 25 ng/ml"}, {"measurement": "EC90 of SV2A occupancy (concentration where 90% of the maximum effect is reached)", "setting": "SV2A; mixed-effect Emax model", "result": 245, "unit": "ng/mL"}, {"measurement": "EC50 of SV2A occupancy (plasma concentration)", "setting": "SV2A; mixed-effect Emax model, all data, 95% CI 18.4 to 36.3 ng/ml", "result": 27.3, "unit": "ng/mL"}, {"measurement": "Emax of SV2A occupancy", "setting": "SV2A; mixed-effect Emax model, all data, 95% CI 80.1%-98.4%", "result": 89.2, "unit": "%"}, {"measurement": "occupancy levels at which mild and transient side effects were seen in some individuals", "setting": "SV2A; possible target related effect", "result": "> 60", "unit": "%"}, {"measurement": "anti-convulsant effects", "setting": "[1]", "result": "without anti-convulsant effects"}, {"measurement": "activity in screening panel of receptors and enzymes", "setting": "[2]", "result": "no activity was observed"}, {"measurement": "cognitive effects in animal models of cognitive deficit", "setting": "[3]", "result": "showed cognitive enhancing effects"}]}]}
